Assay results: article PMC4492759, “Pharmacological profiling of the hemodynamic effects of cannabinoid ligands: a combined in vitro and in vivo approach” (Pharmacology Research & Perspectives, 2015)
Where two headings read alike, the source gives them in different places.

How the values were obtained:
rat GPR55 = molecular target: T1, rat GPR55 (Rattus norvegicus, UniProt F1MAK4); experiment: [35S]-GTPγS binding, membranes of HEK293s cells transfected with rat GPR55; format: biochemical
T1 construct: expressed in transfected cells; host or cells: HEK293s, transient transfection; membranes prepared
T1 sequence (F1MAK4 1-319): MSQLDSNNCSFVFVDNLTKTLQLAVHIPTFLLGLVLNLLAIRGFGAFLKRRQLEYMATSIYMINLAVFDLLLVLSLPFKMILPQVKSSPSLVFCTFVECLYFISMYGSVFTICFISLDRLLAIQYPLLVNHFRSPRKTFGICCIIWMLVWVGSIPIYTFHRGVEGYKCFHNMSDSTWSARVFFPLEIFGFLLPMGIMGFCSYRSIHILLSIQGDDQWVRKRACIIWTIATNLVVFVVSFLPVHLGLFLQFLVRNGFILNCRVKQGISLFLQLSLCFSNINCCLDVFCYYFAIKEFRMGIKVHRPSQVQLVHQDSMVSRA
Protocol: (§1) HEK293s cells were transiently transfected with cDNA encoding rat or mouse CB1 or GPR55 and membranes were prepared as previously described (Ryberg et al. [2007]). In short, agonist activities in [^35S]-GTPγS binding assays were determined by the addition of ligand at 30°C for 45 min in membrane buffer [50 mmol/L NaCl, 5 mmol/L MgCl2, 0.5 mmol/L EDTA, 25 mmol/L HEPES (all Sigma, Gillingham, Dorset, UK); pH 7.4] containing 0.05 μg μL^−1 of membrane protein with 0.01% BSA, 25 μmol/L guanosine 5′-diphosphate (GDP), 100 μmol/L dithiothreitol (DTT), and 0.53 nmol/L [^35S]GTPγS (PerkinElmer) in a final volume of 200 μL. Antagonist assays were performed similarly, with the addition of an EC80 concentration of CP55940 as a nonselective CB1/CB2 agonist in conjunction with the ligand to be tested. Nonspecific binding was determined in the presence of 20 μmol/L unlabeled GTPγS. The reaction was terminated by addition of ice-cold wash buffer (50 mmol/L Tris-HCl, 5 mmol/L MgCl2, 50 mmol/L NaCl; pH 7.4) followed by rapid filtration under vacuum through 96-well B-glass fiber filter plates (PerkinElmer, Waltham, Massachusetts, USA) using a Biomek FX (Beckman Coulter, Bromma, Sweden). The filter plates were dried (30 min at 50°C) before scintillation liquid (PerkinElmer) was added onto the filters and the bound radioactivity was determined using a scintillation counter (Wallac). Data were fitted with a four-parameter logistic fit using the equation y = A + (B − A)/1 + ((C/x)^D), where A is no activation, B is full activation, C is the EC50, and D is the Hill slope. All data were based on at least three independent experiments.

[1] = system: anesthetized WT and GPR55−/− mice; experiment: Hemodynamic responses (MABP, HR) in anesthetized WT and GPR55−/− mice; format: in vivo, mouse
Protocol: (§2) All experiments performed under terminal anesthesia were carried out following approval by Robert Gordon University Animal Ethics Panel. Anesthesia was induced in male SD rats (200–300 g) by sodium pentobarbital [60 mg kg^−1 intraperitoneal (i.p.) injection]. Male/female WT and GPR55^−/− mice (25–35 g) were anesthetized with a mixture of ketamine (120 mg kg^−1) and xylazine (16 mg kg^−1) via i.p. injection. For both species the trachea was cannulated to allow artificial respiration with room air when required (54 strokes min^−1 and tidal volume 1.5 mL 100 g^−1 for rats; 120 strokes min^−1 and tidal volume 100 μL 10 g^−1 for mice) and the left carotid artery and right jugular vein were cannulated for the measurement of arterial BP (MLT844 Physiological Pressure Transducer; AD Instruments, Oxford, UK) and drug administration, respectively. Core temperature was monitored continuously and maintained at 37–38°C with the aid of a Vetcare heated pad (Harvard Apparatus Ltd., Boston, Massachusetts, USA). Anesthesia was monitored by foot pinch reflex and maintained throughout by administration of additional doses of anesthetic (rats: 3–4 mg kg^−1 of sodium pentobarbital salt i.v.; mice: 50 μL 25 g^−1of ketamine/xylazine i.p.) every 40 min, or as required. […] Heart rate (HR) was calculated from the ECG and recorded throughout the entire experimental period. After a stabilization period of approximately 15 min dose–response experiments were carried out as described below.
(§3) As a preliminary assessment of the effects of ACEA on arterial BP, a single bolus intravenous dose (3 mg kg^−1; selected from the literature as a dose known to produce a depressor response) was given to anesthetized rats. […] The time interval between drug administrations was 10–15 min to allow BP values to return to predrug values.

[2] = Blood concentration estimated from dose and blood volume; details: ACEA 3 mg kg−1; assuming total blood volume ∼20 mL in a 300 g rat
Excerpt: Therefore, in an attempt to determine whether GPR55 plays a role in the depressor response to ACEA we studied the hemodynamic responses in anesthetized WT and GPR55^−/− mice.

mouse GPR55 = molecular target: T2, mouse GPR55 (Mus musculus, UniProt Q3UJF0); experiment: [35S]-GTPγS binding, membranes of HEK293s cells transfected with mouse GPR55; format: biochemical; details: mean ± SEM
T2 construct: expressed in transfected cells; host or cells: HEK293s, transient transfection; membranes prepared
T2 sequence (Q3UJF0 whole entry): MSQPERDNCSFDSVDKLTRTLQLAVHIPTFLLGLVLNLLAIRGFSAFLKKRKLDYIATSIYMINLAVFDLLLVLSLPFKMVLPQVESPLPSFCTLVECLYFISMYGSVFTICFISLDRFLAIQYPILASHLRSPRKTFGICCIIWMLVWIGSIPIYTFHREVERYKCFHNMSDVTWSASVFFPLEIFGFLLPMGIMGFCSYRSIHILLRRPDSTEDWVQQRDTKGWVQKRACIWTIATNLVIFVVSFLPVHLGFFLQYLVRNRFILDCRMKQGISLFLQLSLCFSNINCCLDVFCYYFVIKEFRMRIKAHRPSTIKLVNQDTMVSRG
Protocol: as §1

mouse CB1 = molecular target: T3, mouse CB1 (Mus musculus, UniProt P47746); experiment: [35S]-GTPγS binding, membranes of HEK293s cells transfected with mouse CB1; format: biochemical; details: mean ± SEM
T3 construct: expressed in transfected cells; host or cells: HEK293s, transient transfection; membranes prepared
T3 sequence (P47746 whole entry): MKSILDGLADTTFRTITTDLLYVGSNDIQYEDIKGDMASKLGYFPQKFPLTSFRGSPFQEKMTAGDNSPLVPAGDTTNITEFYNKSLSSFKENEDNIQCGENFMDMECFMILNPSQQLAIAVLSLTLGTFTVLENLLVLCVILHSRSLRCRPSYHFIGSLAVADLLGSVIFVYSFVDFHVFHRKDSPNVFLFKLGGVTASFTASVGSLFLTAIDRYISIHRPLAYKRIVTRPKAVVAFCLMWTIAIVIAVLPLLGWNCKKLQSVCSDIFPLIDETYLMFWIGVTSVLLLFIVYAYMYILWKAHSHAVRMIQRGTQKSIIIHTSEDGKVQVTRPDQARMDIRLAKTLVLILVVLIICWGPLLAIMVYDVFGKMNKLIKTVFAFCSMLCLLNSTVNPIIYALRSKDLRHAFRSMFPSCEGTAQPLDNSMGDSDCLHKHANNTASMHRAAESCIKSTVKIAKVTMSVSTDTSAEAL
Protocol: (§4) Antagonist assays were performed similarly, with the addition of an EC80 concentration of CP55940 as a nonselective CB1/CB2 agonist in conjunction with the ligand to be tested. Nonspecific binding was determined in the presence of 20 μmol/L unlabeled GTPγS. The reaction was terminated by addition of ice-cold wash buffer (50 mmol/L Tris-HCl, 5 mmol/L MgCl2, 50 mmol/L NaCl; pH 7.4) followed by rapid filtration under vacuum through 96-well B-glass fiber filter plates (PerkinElmer, Waltham, Massachusetts, USA) using a Biomek FX (Beckman Coulter, Bromma, Sweden). The filter plates were dried (30 min at 50°C) before scintillation liquid (PerkinElmer) was added onto the filters and the bound radioactivity was determined using a scintillation counter (Wallac). Data were fitted with a four-parameter logistic fit using the equation y = A + (B − A)/1 + ((C/x)^D), where A is no activation, B is full activation, C is the EC50, and D is the Hill slope. All data were based on at least three independent experiments.

rat CB1 = molecular target: T4, rat CB1 (Rattus norvegicus, UniProt P20272); experiment: [35S]-GTPγS binding, membranes of HEK293s cells transfected with rat CB1; format: biochemical; details: for EC50: mean ± SEM
T4 construct: expressed in transfected cells; host or cells: HEK293s, transient transfection; membranes prepared
T4 sequence (P20272 whole entry): as the sequence (P47746 whole entry) above, with D95E counted along it
Protocol: as §4

[3] = system: anesthetized Sprague–Dawley (SD) rats; experiment: Hemodynamic responses (MABP, HR) in anesthetized normotensive rats; format: in vivo, rat
Protocol: as §2, §3

[4] = system: conscious WT, CB1−/− and GPR55−/− mice; experiment: Blood pressure and heart rate responses in conscious mice (WT, CB1−/−, GPR55−/−); details: metoprolol (10 mg kg−1 i.v.); conscious GPR55−/− mice
[5] = agonist mode, at least three experiments, read-out: GPR55 EC50, Mouse
[6] = agonist mode, at least three experiments, read-out: CB1 EC50, Mouse
[7] = antagonist mode, vs EC80 concentration of CP55940, read-out: CB1 EC50, Mouse (ligand behaved as an antagonist)

CCCCC/C=C\C/C=C\C/C=C\C/C=C\CCCC(=O)NCCCl [ACEA, arachidonyl-2′-chloroethylamide]
EC50 (rat GPR55; agonist mode, mean ± SEM, at least three experiments, read-out: GPR55 EC50, Rat): 78 ± 4 nM | effect on HR ([1]; ACEA 3 mg kg−1, WT and GPR55−/− mice): nor was there any measurable effect | depressor response distinguishable from vehicle ([1]; ACEA 3 mg kg−1, either WT or GPR55−/− mice): did not produce a depressor response | expected total (not necessarily free) blood concentration [2]: 100 to 120 nmol/L | EC50 (mouse GPR55; [5]): 62 ± 3 nM | EC50 (mouse CB1; [6]): 3 ± 0.5 nM | higher affinity for CB1 as compared to GPR55 (rat CB1; GTPγS binding, both mouse and rat): approximately 10 fold | EC50 (rat CB1; agonist mode, at least three experiments, read-out: CB1 EC50, Rat): 7 ± 1 nM | effect on HR ([3]; ACEA single bolus 3 mg kg−1 i.v.): no effect | blood pressure (MABP) response ([3]; ACEA single bolus 3 mg kg−1 i.v., P < 0.001): reproducible and pronounced depressor response

CCCCC/C=C\C/C=C\C/C=C\C/C=C\CCCC(=O)NCCO [AEA, anandamide]
EC50 (rat GPR55): 24 ± 3 nM | EC50 (mouse GPR55; [5]): 38 ± 3 nM

Cc1c(C(=O)NN2CCCCC2)nn(-c2ccc(Cl)cc2Cl)c1-c1ccc(I)cc1 [AM251, 1-(2,4-dichlorophenyl)-5-(4-iodophenyl)-4-methyl-N-(piperidin-1-yl)-1H-pyrazole-3-carboxamide]
EC50 (rat GPR55): 74 ± 3 nM | depressor response in the presence of CBD ([1]; AM251 (1 and 3 mg kg−1) with CBD (50 μg kg−1), mice): augmented | EC50 (mouse GPR55; [5]): 68 ± 3 nM | EC50 (mouse CB1; [7]): 13 ± 2 nM | higher potency for CB1 (antagonist) than GPR55 (agonist) (rat CB1; GTPγS binding, rat and mouse): three to five | effect on magnitude and duration of the depressor response to ACEA ([3]; AM251 1 and 3 mg kg−1, ACEA 3 mg kg−1, dose-dependent, P < 0.01): attenuated

Cc1c(C(=O)NN2CCOCC2)nn(-c2ccc(Cl)cc2Cl)c1-c1ccc(I)cc1 [AM281, 1-(2,4-dichlorophenyl)-5-(4-iodophenyl)-4-methyl-N-4-morpholinyl-1H-pyrazole-3-carboxamide]
EC50 (rat GPR55): > 30000 nM | EC50 (mouse GPR55; [5]): > 30000 nM | EC50 (mouse CB1; [7]): 8 ± 1 nM | EC50 (rat CB1; antagonist mode, vs EC80 concentration of CP55940, read-out: CB1 EC50, Rat (ligand behaved as an antagonist)): 13 ± 4 nM

C=C(C)[C@@H]1CCC(C)=C[C@H]1c1c(O)cc(CCCCC)cc1O [CBD, cannabidiol]
EC50 (rat GPR55): 624 ± 13 nM | blood pressure response ([1]; CBD alone 50 μg kg−1, WT and GPR55−/− mice): depressor responses of a similar magnitude | EC50 (mouse GPR55; antagonist mode, vs EC80 concentration of CP55940, read-out: GPR55 EC50, Mouse (ligand behaved as an antagonist)): 780 ± 8 nM | EC50 (mouse CB1; [6]): > 30000 nM | effect on HR ([3]; CBD 50 μg kg−1, any experiments (rats and mice), data not shown): unaffected | reduction of AAC value of the depressor response to ACEA ([3]; CBD alone 50 μg kg−1, ACEA 3 mg kg−1, P < 0.05): approximately 50% | blood pressure response ([3]; CBD alone 50 μg kg−1 single bolus, P < 0.05): small but measurable and statistically significant depressor response

COCCc1ccc(OCC(O)CNC(C)C)cc1 (stereo not drawn) [metoprolol]
effect on HR [4]: profound and long-lasting bradycardia
